Data: paper PMC12567500, “Activity-Based Profiling of Papain-like Cysteine Proteases During Late-Stage Leaf Senescence in Barley” (Plants, 2025)

Columns and labels:
[1] = system: PLCPs (cathepsin B- and L-like activity, Fr. No 35–36 of barley leaf extract); assay: Inhibition of Z-FR-AMC cleavage, pooled ion-exchange fractions Nos. 35–36; type: biochemical, barley (Hordeum vulgare L.); details: for IC50: substrate Z-FR-AMC 25 µM, Fr. No 35–36, senescing leaves six weeks after anthesis, pH 5.5, read-out: Effect/IC50
Description: (§1) Soluble proteins from barley leaves were extracted by homogenizing 10 g of leaf powder in 200 mL of ice-cold 50 mM Tris-HCl buffer (pH 7.4). Homogenates were filtered through one layer of Miracloth (Calbiochem, San Diego, CA, USA), centrifuged at 20,000× g for 20 min at 4 °C, and the supernatants were then filtered through a 0.45 μm filter (Avantor, Radnor, PA, USA). PLCPs were separated using anion-exchange chromatography on a DEAE-Sepharose CL-6B column (volume 6 mL) equilibrated with 0.05 M Tris-HCl buffer (pH 7.4). The column was washed with equilibration buffer, and bound material was eluted with a NaCl gradient (0.0–1.0 M). Collected fractions (1 mL each) were kept in an ice bath and used for measurements of peptidase activity and protein content. Fractions with active cysteine proteases were pooled. To reduce the NaCl concentration and exchange the buffer to 0.1 M Na-citrate (pH 5.5), three sequential filtration steps using 10 kDa ultrafiltration 15 mL units (Merck Millipore Ltd., Carrigtwohill, County Cork, Ireland) were utilized, and the samples were incubated with gentle shaking with 10 µM DCG-04 in the presence of 2 mM DTT for 3 h at 37 °C. […] The intensity of DCG-04-labeled barley cysteine proteases was determined in our previous experiments using streptavidin-horseradish peroxidase. After the incubation, proteins were rapidly precipitated using 80% acetone under inclusion of 100 mM NaCl.
(§2) Fluorogenic substrates Z-FR-AMC to determine cathepsin B- and L-like activity, and Z-RR-AMC to determine cathepsin B-like activity, were used. These substrates show fluorescence when AMC is released as a consequence of the hydrolysis of the Arg-AMC bond. The emitted fluorescence was detected with a SpectraMax M2 microplate reader (Molecular Devices, San Jose, CA, USA) with λex = 360 nm and λem = 460 nm. Before use, the substrates were dissolved in DMSO at 10 mM and stored at −20 °C. The measurements were made in 96-well black microplates (PerkinElmer Inc., Waltham, MA, USA), and each well contained a 100 μL final volume of 0.1 M Na-citrate buffer (pH 5.5) with DTT (2 mM), an aliquot of extract or chromatographic fraction, and fluorogenic substrate (25 μM). The reaction was initiated by the addition of the substrate. The final concentration of DMSO in microplate wells was 1% in all assays. The assays were conducted at room temperature, and relative fluorescence readings were recorded over a period of 10 min.
(§3) For the inhibition assays, an inhibitor (1 µL of stock solution of E-64 or bestatin in DMSO, or stock solution of 1,10-phenanthroline in ethanol) at different concentrations was added to the reaction mixture. […]

PLCPs from maize leaves = system: PLCPs from maize leaves; design: method as in PMID 31114592; details: ion-exchange chromatography; cited from earlier work
[2] = system: aleurain (a cysteine aminopeptidase); design: method as in PMID 12354950; details: cited from earlier work
[3] = biological target: R-AMC cleaving aminopeptidase activity (Fr. No 26–27 of barley leaf extract); assay: Inhibition of R-AMC cleaving aminopeptidase activity, pooled ion-exchange fractions Nos. 26–27; type: biochemical, barley (Hordeum vulgare L.); details: for IC50: substrate R-AMC 25 µM, Fr. No 26–27, senescing leaves six weeks after anthesis, pH 5.5, read-out: Effect/IC50; for Inhibition of R-AMC cleaving aminopeptidase activity (in words): substrate R-AMC, earlier eluting fractions
[4] = system: PLCPs (cathepsin B-like activity, Fr. No 35–36 of barley leaf extract); assay: Inhibition of Z-RR-AMC cleavage, pooled ion-exchange fractions Nos. 35–36; type: biochemical, barley (Hordeum vulgare L.); details: for IC50: substrate Z-RR-AMC 25 µM, Fr. No 35–36, senescing leaves six weeks after anthesis, pH 5.5, read-out: Effect/IC50
Description: as §1, §2, §3

[5] = system: PLCPs (pooled fractions with active cysteine proteases); assay: DCG-04 labeling of pooled active fractions, remaining PLCP activity checked with Z-FR-AMC and Z-RR-AMC; type: biochemical, barley (Hordeum vulgare L.); details: 10 µM DCG-04, 2 mM DTT, 3 h at 37 °C, 0.1 M Na-citrate pH 5.5
Description: as §1, with “After the incubation, proteins were rapidly precipitated using 80% acetone under inclusion of 100 mM NaCl.” left out

IC50 [1] [µM] | IC50 [3] [µM] | IC50 [4] [µM] | Inhibition of R-AMC cleaving aminopeptidase activity (in words) [3] | Compound | Inhibition of the activity of the peak fractions (in words) ([1]; substrate Z-FR-AMC, peak fractions of DEAE-Sepharose) | Sensitivity of the single Z-FR-AMC cleavage activity peak to inhibition (in words) (PLCPs from maize leaves) | Inhibition of aleurain activity (in words) [2] | Inhibition of the activity of the peak fractions (in words) ([4]; substrate Z-RR-AMC, peak fractions of DEAE-Sepharose) | Remaining PLCP activity after incubation with probe [5]
0.0153 ± 0.0041 | > 25 | 0.0091 ± 0.0022 |  | CC(C)C[C@H](NC(=O)[C@H]1O[C@@H]1C(=O)O)C(=O)NCCCCN=C(N)N (relative stereo) [E-64, trans-epoxysuccinyl-L-leucylamido-(4-guanidino)butane] | completely inhibited | sensitive | inhibited | completely inhibited | 
> 5000 | 68.5 ± 12.2 | > 5000 | inhibited | c1cnc2c(c1)ccc1cccnc12 [1,10-Phenanthroline, 1,10-phenanthroline] |  |  |  |  | 
> 1000 | 247 ± 38 | > 1000 | inhibited | CC(C)C[C@H](NC(=O)[C@@H](O)[C@H](N)Cc1ccccc1)C(=O)O [Bestatin, bestatin] |  |  |  |  | 
 |  |  |  | CCOC(=O)[C@H]1O[C@@H]1C(=O)N[C@@H](CC(C)C)C(=O)N[C@@H](Cc1ccc(O)cc1)C(=O)NCCCCCC(=O)N[C@@H](CCCCNC(=O)CCCC[C@@H]1SC[C@@H]2NC(=O)N[C@@H]21)C(N)=O [DCG-04] |  |  |  |  | No remaining PLCP activity
